Values joined by “and” are separate entries in the source; they are usually repeats but may differ in a detail not shown here. Equal values may be shown once.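 1) Cells in 96-well plates. 2) Compound, 48 h, 5 concentrations. 3) Linear interpolation between surrounding doses. 4) Unreached endpoint = highest concentration. Abbreviation: GI50, concentration required for 50% inhibition of growth. TGI denotes the concentration required for complete inhibition of growth.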

Consider eight compounds from PubChem BioAssay (NCI).

Some test systems named below: NCI-H522 lung; SK-MEL-5 melanoma; OVCAR-4 ovarian; HS 578T breast; MDA-MB-231 breast; NCI-H460 lung; SNB-75 CNS; A498 renal; NCI/ADR-RES ovarian; MOLT-4 leukemia.
Assay in all cases: NCI anticancer screen, dose series, 48 h

Take `CCCCCCCCCCC/C=C\C[C@H](O)C/C=C1/C(=O)C=C[C@@H]1C/C=C\CCCC(=O)OC`: the GI50 was 0.753 µM in the assay with NCI-H522 lung; 0.603 µM with SK-MEL-5 melanoma; 0.862 µM in the assay on OVCAR-4 ovarian; 0.986 µM in the assay on HS 578T breast; 0.895 µM in the assay on MDA-MB-231 breast; 1.11 µM in the assay with NCI-H460 lung. In addition, the GI50 in the assay with SNB-75 CNS was 2.07 µM; with A498 renal, 7.68 µM; in the assay on NCI/ADR-RES ovarian, 0.925 µM; in the assay with MOLT-4 leukemia, 0.838 µM. Also, the TGI in the assay on NCI-H522 lung amounted to 2.36 µM; with SK-MEL-5 melanoma it was 1.17 µM; in the assay with OVCAR-4 ovarian it was 3.68 µM; in the assay with HS 578T breast, 6.1 µM; in the assay with MDA-MB-231 breast, 2.61 µM; with NCI-H460 lung, 3.91 µM. Moreover, the TGI stood at 6.79 µM in the assay with SNB-75 CNS, 13.6 µM with A498 renal, 2.93 µM with NCI/ADR-RES ovarian and 2.71 µM in the assay with MOLT-4 leukemia.
As to `O=C(O)C1C2C=CC(C2)C1C(=O)O` (stereo not drawn), the GI50 in the assay on NCI-H522 lung, with SK-MEL-5 melanoma, with OVCAR-4 ovarian, with HS 578T breast, in the assay on MDA-MB-231 breast and in the assay on NCI-H460 lung was more than 100 µM each time. Also, the GI50 in the assay on SNB-75 CNS, in the assay with A498 renal, in the assay with NCI/ADR-RES ovarian and with MOLT-4 leukemia was more than 100 µM in each case. For the same compound, the TGI with NCI-H522 lung, in the assay with SK-MEL-5 melanoma, with OVCAR-4 ovarian, in the assay on HS 578T breast, in the assay with MDA-MB-231 breast and in the assay with NCI-H460 lung was more than 100 µM throughout. Moreover, the TGI with SNB-75 CNS, with A498 renal, with NCI/ADR-RES ovarian and in the assay on MOLT-4 leukemia was more than 100 µM throughout.
As to `Cn1c2ccccc2c(=O)c2c(O)cc3c(c21)CC(C1(C)CO1)O3` (stereo not drawn), the TGI in the assay on NCI-H522 lung came to 9.79 µM; with SK-MEL-5 melanoma, 3.88 µM; in the assay on OVCAR-4 ovarian it was 31.2 µM; in the assay on HS 578T breast it was 5.31 µM; in the assay with MDA-MB-231 breast, 5.85 µM; with NCI-H460 lung, 13.6 µM. The TGI was 24 µM with SNB-75 CNS, 33.9 µM with A498 renal, 3.2 µM with NCI/ADR-RES ovarian and 1.45 µM with MOLT-4 leukemia.
For the compound `CN(C)CCC=C1c2ccccc2C(C)(C)c2ccccc21`, the GI50 in the assay on NCI-H522 lung is 17.9 µM; in the assay with SK-MEL-5 melanoma, 1.9 µM; with OVCAR-4 ovarian, 12.5 µM; in the assay on HS 578T breast, 9.03 µM; in the assay on MDA-MB-231 breast, 13.8 µM; in the assay on NCI-H460 lung it was 9.23 µM. Besides, the GI50 in the assay with SNB-75 CNS is 2.86 µM; in the assay on A498 renal, 12.9 µM; in the assay on NCI/ADR-RES ovarian it was 17 µM; with MOLT-4 leukemia it was 7.18 µM. Moreover, the TGI in the assay on NCI-H522 lung came to 37.1 µM; with SK-MEL-5 melanoma, 5.09 µM; in the assay on OVCAR-4 ovarian, 26.6 µM; in the assay on HS 578T breast it was 29.8 µM; in the assay with MDA-MB-231 breast, 28.8 µM; in the assay on NCI-H460 lung, 21.3 µM. Further, the TGI in the assay on SNB-75 CNS worked out at 17.6 µM; with A498 renal, 26 µM; with NCI/ADR-RES ovarian it was 34.1 µM; in the assay on MOLT-4 leukemia, 23 µM.
For `c1cc(CSSCc2ccncc2)ccn1`, the TGI is 60.2 µM with NCI-H522 lung; 56.6 µM in the assay with SK-MEL-5 melanoma; more than 100 µM in the assay on OVCAR-4 ovarian; 76 µM with HS 578T breast; more than 100 µM with MDA-MB-231 breast; more than 84.9 µM with NCI-H460 lung. For the same compound, the TGI is more than 100 µM in the assay on SNB-75 CNS, more than 100 µM in the assay with A498 renal, more than 85.3 µM with NCI/ADR-RES ovarian and 23.7 µM in the assay on MOLT-4 leukemia.
Turning to `COC(C(=O)C(O)C(C)O)C1Cc2cc3cc(OC4CC(OC5CC(O)C(O)C(C)O5)C(O)C(C)O4)c(C)c(O)c3c(O)c2C(=O)C1OC1CC(OC2CC(O)C(OC3CC(C)(O)C(O)C(C)O3)C(C)O2)C(O)C(C)O1` (stereo not drawn), the GI50 in the assay with NCI-H522 lung is 11.2 ng/mL and 0.596 ng/mL; in the assay with SK-MEL-5 melanoma, 11.2 ng/mL and 1.86 ng/mL; with OVCAR-4 ovarian, 24.2 ng/mL and 1.92 ng/mL; with HS 578T breast it was 16.4 ng/mL; with MDA-MB-231 breast, 27.9 ng/mL and 32 ng/mL; in the assay with NCI-H460 lung, 11.2 ng/mL and 0.613 ng/mL. Moreover, the GI50 was 11.2 ng/mL and 0.782 ng/mL in the assay with SNB-75 CNS; 11.2 ng/mL and 0.0278 ng/mL in the assay with A498 renal; 3870 ng/mL and 80.9 ng/mL in the assay with NCI/ADR-RES ovarian; 11.2 ng/mL and 2.69 ng/mL with MOLT-4 leukemia. In addition, the TGI with OVCAR-4 ovarian was 269 ng/mL and 143 ng/mL; in the assay with HS 578T breast, 134 ng/mL; in the assay with MDA-MB-231 breast, 112000 ng/mL and 43500 ng/mL.
Regarding `O=C(N=Nc1c(O)[nH]c2ccccc12)c1oc2ccccc2c1CN1CCN(c2ccccc2)CC1`, the GI50 with NCI-H522 lung was 3.58 µM; in the assay with SK-MEL-5 melanoma it was 1.49 µM; with OVCAR-4 ovarian it was 0.725 µM; in the assay with HS 578T breast it was 1.69 µM; in the assay with MDA-MB-231 breast it was 1.45 µM; with NCI-H460 lung, 1.17 µM. For the same compound, the GI50 was 1.04 µM with SNB-75 CNS, 1.56 µM in the assay with A498 renal, 1.29 µM in the assay with NCI/ADR-RES ovarian and 1.96 µM with MOLT-4 leukemia. In addition, the TGI with NCI-H522 lung is 19.3 µM; in the assay with SK-MEL-5 melanoma, 5.19 µM; in the assay with OVCAR-4 ovarian, 1.46 µM; in the assay on HS 578T breast, 10.4 µM; in the assay on MDA-MB-231 breast it was 4.58 µM; with NCI-H460 lung, 2.79 µM. Further, the TGI in the assay on SNB-75 CNS is 4.48 µM; in the assay with A498 renal, 8.87 µM; in the assay with NCI/ADR-RES ovarian it was 4.68 µM; with MOLT-4 leukemia, more than 50 µM.
In the case of `CC(C)(CCN=C(N)Nc1ccccn1)c1ccc(C(F)(F)F)cc1`, the GI50 was 14.5 µM in the assay on NCI-H522 lung; 12 µM in the assay with SK-MEL-5 melanoma; 11.8 µM in the assay with OVCAR-4 ovarian; 18.1 µM in the assay on HS 578T breast; 14.9 µM with MDA-MB-231 breast; 15.3 µM in the assay on NCI-H460 lung. Besides, the GI50 in the assay with SNB-75 CNS is 12.9 µM; in the assay on A498 renal, 14.9 µM; in the assay on NCI/ADR-RES ovarian it was 17.5 µM; in the assay with MOLT-4 leukemia, 14.5 µM. In addition, the TGI in the assay on NCI-H522 lung was found to be 30.8 µM; in the assay with SK-MEL-5 melanoma, 25 µM; in the assay on OVCAR-4 ovarian, 28.1 µM; in the assay on HS 578T breast, 39.3 µM; in the assay with MDA-MB-231 breast, 29.8 µM; in the assay on NCI-H460 lung, 31.2 µM. Further, the TGI was 33.8 µM with SNB-75 CNS, 28.8 µM with A498 renal, 32.9 µM with NCI/ADR-RES ovarian and 37.4 µM in the assay with MOLT-4 leukemia.
